According to PMC12196043, “In Vivo PK-PD and Drug–Drug Interaction Study of Dorzagliatin for the Management of PI3Kα Inhibitor-Induced Hyperglycemia” (Pharmaceuticals, 2025):
In brackets after ≈: the same amount, converted by molar mass. Like-named read-outs stand apart in the source and are kept apart here.

Legend:
[1] = design: method as in PMID 35551294; conditions: cited from earlier work
[2] = tested on: fasting plasma glucose (∆FPG); experiment: PK/PD sigmoid Emax model of dorzagliatin plasma concentration vs ∆FPG; format: in vivo, BALB/c nude mice
Procedure: To further characterize the pharmacokinetics of the compounds, a two-compartment model with first-order absorption was developed using the Phoenix Model module in Phoenix software. The AIC method was applied to identify the most suitable pharmacokinetic model. This model facilitated the comprehensive evaluation of the pharmacokinetic behavior of the drugs under investigation.
To evaluate the effect of the test compounds on blood glucose levels, 10 μL of blood was collected from the tail veins of mice at baseline (time 0) and at predetermined time points (0.5, 1, 2, 4, 6, and 8 h) post-administration. Blood glucose levels were measured using a OneTouch Ultra glucometer. Changes in FPG levels over time were monitored and analyzed. ∆FPG was calculated using Equation (5):(5) ∆FPG=FPGcontrol−FPGexp/FPGcontrol×100% where: • FPGexp represents the FPG levels in the dorzagliatin group, dorzagliatin + WX390 group, or the dorzagliatin + BYL719 group. • FPGcontrol represents the FPG levels in the vehicle control group, WX390 group, or BYL719 group.
A preliminary PK/PD interaction model was developed using plasma concentrations and FPG levels in tumor-bearing mice. The relationship between plasma drug concentrations and FPG reduction was described using the Sigmoid Eₘₐₓ model (Equation (6)):(6) E=E0+Emax×Ce^γ/EC50γ+Ce^γ where: • E represents the mean percent blood glucose reduction. • Cₑ indicates the plasma concentration of the drug that elicits a pharmacodynamic response. • E0 is the baseline drug effect. • Eₘₐₓ represents the maximum potential drug effect. • EC50 is the plasma concentration at which 50% of the maximum drug effect is observed. • γ denotes the Hill coefficient, which reflects the steepness of the concentration-effect curve.

[3] = Plasma pharmacokinetics by LC-MS/MS in OVCAR3 xenograft tumor-bearing nude mice; format: in vivo, BALB/c nude mice; conditions: n = 3
Procedure: This study, approved by Fudan University Ethics Committee (protocol code: 201904008Z) on 26 April 2019, was conducted in compliance with AAALAC’s International Commission guidelines for laboratory animal evaluation and accreditation. A total of 36 female BALB/c nude mice (6–8 weeks old, weighing 18–20 g) were purchased from Charles River Laboratories (Pinghu, China). The OVCAR3 ovarian cancer cell line (ATCC® HTB-161™) was used to establish human xenografts. OVCAR3 cells (10 × 10^6) suspended in 0.2 mL of Matrigel were subcutaneously inoculated into the dorsal region of each mouse. Tumors were allowed to grow until reaching a volume of ~160 mm^3, typically around 30 days post-inoculation.
WX390 was prepared in Solvent-1, comprising dimethyl sulfoxide (DMSO): methylcellulose: water at a ratio of 1:1:98 (v/v/v). BYL719 and dorzagliatin were formulated in Solvent-2, consisting of Tween 80: water with 0.5% methylcellulose (MC) solution at a ratio of 0.2:99.8 (v/v). The treatment control was a combination of Solvent-1 and Solvent-2. The test compounds were administered orally as follows: WX390 at 0.2 mg/kg, BYL719 at 25 mg/kg, and dorzagliatin at 10 mg/kg, dissolved in their respective formulations. Due to ethical considerations regarding gavage volume the administration volume across all groups was standardized to 10 μL/g of body weight.
The experiment involved six treatment groups, each comprising six mice. The groups included: (i) vehicle control, (ii) WX390 (0.2 mg/kg), (iii) BYL719 (25 mg/kg), (iv) dorzagliatin (10 mg/kg), (v) WX390 (0.2 mg/kg) + dorzagliatin (10 mg/kg), and (vi) BYL719 (25 mg/kg) + dorzagliatin (10 mg/kg). All treatments were administered via oral gavage once daily for four weeks. In the combination group of PI3Ki and dorzagliatin, dorzagliatin was administered 30 min prior to PI3Ki.
Following the 4-week treatment period, all experimental groups were fasted 6 h before the last administration until the end of the experiment. Water was not restricted during the fasting period. Blood samples were collected at 0, 0.5, 1, 2, 4, and 8 h after administration. Each mouse had 3 blood collection points, with 50 μL of plasma collected at each point. Mice in each group were allocated to two cohorts: The first cohort underwent blood collection at 0, 1, and 2 h post-administration, while the second cohort was sampled at 0.5, 4, and 8 h post-administration. Terminal blood collection at the 2-h time point for the first cohort was performed via cardiac puncture following euthanasia, during which tumor tissues were concurrently harvested from this cohort. Blood samples were processed through centrifugation (4 °C, 1500× g for 10 min) for plasma separation. All plasma and tumor samples were immediately snap-frozen in liquid nitrogen and stored at −80 °C for subsequent analysis.
The extraction of WX390, BYL719, and dorzagliatin from plasma samples was performed using protein precipitation. Internal standards (IS) included SBL-D3, BNSL-D5, and PLPL-D8 for WX390, BYL719, and dorzagliatin, respectively. Plasma samples (20 μL) were mixed with 20 μL of zinc sulfate aqueous solution (0.1 mol/L) and 200 µL of a 50% methanol solution containing three internal standards followed by vortexing for 10 min. The samples were centrifuged at 4 °C (15,000× g for 5 min). The supernatant (180 μL) was transferred to a clean Eppendorf tube, and a 10 μL aliquot was injected into the LC-MS/MS system.
Chromatographic separations were performed using an AB SCIEX Jasper HPLC system coupled with an AB SCIEX Triple Quad 4500MD mass spectrometer (AB SCIEX, USA). A Phenomenex Kinetex C18 column (100 × 3 mm, 2.6 μm) was used at 40 °C. The flow rate was maintained at 0.4 mL/min with a total run time of 4 min. […]

[4] = cited from earlier work
P-gp = conditions: cited from earlier work
[5] = E = mean percent blood glucose reduction (∆FPG)
[6] = Dorz 10 mg/kg measured in Dorz + BYL719 (25 mg/kg) group, oral
[7] = Dorz 10 mg/kg measured in Dorz + WX390 (0.2 mg/kg) group, oral
[8] = monotherapy group, plasma, oral gavage once daily for four weeks, Dorz 10 mg/kg, WX390 0.2 mg/kg, BYL719 25 mg/kg
[9] = co-administration with moderate CYP3A4 inhibitors such as verapamil, fluconazole, erythromycin

Q: Which results are given for CC(C)C[C@@H](C(=O)Nc1ccn(C[C@@H](O)CO)n1)N1CC(Oc2ccccc2Cl)=CC1=O [Dorz, Dorzagliatin]?
A: patients with clinically significant hypoglycemic events (blood glucose < 54 mg/dL) ([1]; 24-week double-blind treatment period, 1 of 310 patients): 0.3%; exposure-adjusted event rate for clinically significant hypoglycemia ([1]; 52-week observation period): 0.006 events per patient-year; E0 (baseline drug effect) in PK/PD equation [2, 5]: 10; Emax (maximum potential drug effect) in PK/PD equation [2, 5]: 50%; EC50 (∆FPG as indicator) ([2]; dorzagliatin plasma concentration giving 50% of maximum effect, per treatment group): 0.74 mg/L (≈ 1.6 µM); Hill coefficient (γ) ([2]; ∆FPG, per treatment group): 0.80; AUC0→t [3, 6]: 3.95358 µg·h/mL; Cmax [3, 6]: 2.01333 µg/mL; Tmax [3, 6]: 1.00 h; t1/2 [3, 6]: 1.86 h; AUC0→t [3, 7]: 4.65723 µg·h/mL; Cmax [3, 7]: 1.77667 µg/mL; Tmax [3, 7]: 0.50 h; t1/2 [3, 7]: 2.93 h; AUC0→t [3, 8]: 3.2879 µg·h/mL; Cmax [3, 8]: 1.331 µg/mL; Tmax [3, 8]: 0.50 h; t1/2 [3, 8]: 2.15 h; time to steady-state plasma pharmacokinetics ([4]; T2DM patients, twice-daily oral administration): ≤ 4 days; AUCtau ([4]; after oral administration): 5.57 µg·h/mL; Cmax ([4]; after oral administration): 1.09 µg/mL; median Tmax ([4]; after oral administration): 1.31 h; Metabolism [4]: primarily occurs in the liver via cytochrome P450 enzyme 3A4 (CYP3A4); fold increase in AUC0→t of dorzagliatin [4, 9]: 2.4 fold; fold increase in Cmax of dorzagliatin [4, 9]: 1.2 fold; mean apparent volume of distribution ([4]; single 50 mg oral dose, healthy subjects): 115 L; P-gp substrate status (P-gp): substrate of P-gp
